# Experimental data taken from ChEMBL document CHEMBL6103552, “Identification of peptide-based hepatitis B virus capsid inhibitors based on the viral core protein” (Bioorg Med Chem Lett, 2025).
# Active and inactive are the calls of the source. No rule for the calls is given here. Residues, ends and D or L forms follow the SMILES beside them.
# Molecular target: Core antigen (Hepatitis B virus) (UniProt Q03732)
# Assay: Inhibition of Hepatitis B virus capsid formation at 100 uM treated during cell-free wild type HBV Cp synthesis using wheat germ lysates and HBV Cp RNA by Native capsid assay based western blot analysis
# Assay type: subcellular
# Sequence of Core antigen (Hepatitis B virus) (Q03732 as listed by the source): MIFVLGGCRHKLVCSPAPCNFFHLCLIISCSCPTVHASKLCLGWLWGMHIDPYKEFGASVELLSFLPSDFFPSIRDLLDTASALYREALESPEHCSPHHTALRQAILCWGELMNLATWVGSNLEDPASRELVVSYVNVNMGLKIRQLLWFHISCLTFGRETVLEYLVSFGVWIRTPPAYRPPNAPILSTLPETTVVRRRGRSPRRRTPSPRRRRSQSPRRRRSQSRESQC
row,Compound,inhibition
1,CC(=O)N[C@@H](C)C(=O)N[C@@H](CO)C(=O)N[C@H](C(=O)N[C@@H](CCC(=O)O)C(=O)N[C@@H](CC(C)C)C(=O)N[C@@H](CC(C)C)C(=O)N[C@@H](CO)C(=O)N[C@@H](Cc1ccccc1)C(=O)N[C@@H](CC(C)C)C(=O)N1CCC[C@H]1C(=O)N[C@@H](CO)C(=O)N[C@@H](CC(=O)O)C(=O)N[C@@H](Cc1ccccc1)C(=O)N[C@@H](Cc1ccccc1)C(=O)N1CCC[C@H]1C(N)=O)C(C)C,inactive
2,CC(=O)N[C@@H](CC(C)C)C(=O)N[C@@H](CCC(=O)O)C(=O)N[C@@H](CC(=O)O)C(=O)N1CCC[C@H]1C(=O)N[C@@H](C)C(=O)N[C@@H](CO)C(=O)N[C@@H](CCCNC(=N)N)C(=O)N[C@@H](CCC(=O)O)C(=O)N[C@@H](CC(C)C)C(=O)N[C@H](C(=O)N[C@H](C(=O)N[C@@H](CO)C(=O)N[C@@H](Cc1ccc(O)cc1)C(=O)N[C@H](C(=O)N[C@@H](CC(N)=O)C(N)=O)C(C)C)C(C)C)C(C)C,inactive
3,CC(=O)N[C@@H](CO)C(=O)N[C@H](C(=O)N[C@@H](CC(C)C)C(=O)N1CCC[C@H]1C(=O)N[C@@H](CCC(=O)O)C(=O)N[C@H](C(=O)N[C@H](C(=O)N[C@H](C(=O)N[C@H](C(=O)N[C@@H](CCCNC(=N)N)C(=O)N[C@@H](CCCNC(=N)N)C(=O)N[C@@H](CCCNC(=N)N)C(=O)NCC(=O)N[C@@H](CCCNC(=N)N)C(=O)N[C@@H](CO)C(N)=O)C(C)C)C(C)C)[C@@H](C)O)[C@@H](C)O)[C@@H](C)O,inactive
4,CC(=O)N[C@@H](Cc1c[nH]c2ccccc12)C(=O)N[C@H](C(=O)NCC(=O)N[C@@H](CO)C(=O)N[C@@H](CC(N)=O)C(=O)N[C@@H](CC(C)C)C(=O)N[C@@H](CCC(=O)O)C(=O)N[C@@H](CC(=O)O)C(=O)N1CCC[C@H]1C(=O)N[C@@H](C)C(=O)N[C@@H](CO)C(=O)N[C@@H](CCCNC(=N)N)C(=O)N[C@@H](CCC(=O)O)C(=O)N[C@@H](CC(C)C)C(=O)N[C@H](C(N)=O)C(C)C)C(C)C,inactive
5,CC(=O)N[C@@H](Cc1ccc(O)cc1)C(=O)N[C@@H](CCCCN)C(=O)N[C@@H](CCC(=O)O)C(=O)N[C@@H](Cc1ccccc1)C(=O)NCC(=O)N[C@@H](C)C(=O)N[C@@H](CO)C(=O)N[C@H](C(=O)N[C@@H](CCC(=O)O)C(=O)N[C@@H](CC(C)C)C(=O)N[C@@H](CC(C)C)C(=O)N[C@@H](CO)C(=O)N[C@@H](Cc1ccccc1)C(=O)N[C@@H](CC(C)C)C(=O)N1CCC[C@H]1C(N)=O)C(C)C,inactive
6,CC(C)C[C@H](NC(=O)[C@@H](NC(=O)[C@@H](N)CO)[C@@H](C)O)C(=O)N1CCC[C@H]1C(=O)N[C@@H](CCC(=O)O)C(=O)N[C@H](C(=O)N[C@H](C(=O)N[C@H](C(=O)N[C@H](C(=O)N[C@@H](CCCNC(=N)N)C(=O)N[C@@H](CCCNC(=N)N)C(=O)N[C@@H](CCCNC(=N)N)C(=O)NCC(=O)N[C@@H](CCCNC(=N)N)C(=O)N[C@@H](CO)C(N)=O)C(C)C)C(C)C)[C@@H](C)O)[C@@H](C)O,inactive
7,CC[C@H](C)[C@H](NC(=O)[C@@H]1CCCN1C(=O)[C@H](C)NC(=O)[C@H](CC(N)=O)NC(C)=O)C(=O)N[C@@H](CC(C)C)C(=O)N[C@@H](CO)C(=O)N[C@H](C(=O)N[C@@H](CC(C)C)C(=O)N1CCC[C@H]1C(=O)N[C@@H](CCC(=O)O)C(=O)N[C@H](C(=O)N[C@H](C(=O)N[C@H](C(=O)N[C@H](C(=O)N[C@@H](CCCNC(=N)N)C(N)=O)C(C)C)C(C)C)[C@@H](C)O)[C@@H](C)O)[C@@H](C)O,inactive
8,CC[C@H](C)[C@H](NC(=O)[C@H](C)NC(=O)[C@H](CCC(N)=O)NC(=O)[C@@H]1CCCN1C(C)=O)C(=O)N[C@@H](CC(C)C)C(=O)N[C@@H](CS)C(=O)N[C@@H](Cc1c[nH]c2ccccc12)C(=O)NCC(=O)N[C@@H](CCC(=O)O)C(=O)N[C@@H](CC(C)C)C(=O)N[C@@H](CCSC)C(=O)N[C@@H](CC(N)=O)C(=O)N[C@@H](CC(C)C)C(=O)N[C@@H](C)C(=O)N[C@H](C(N)=O)[C@@H](C)O,inactive
9,CC[C@H](C)[C@H](NC(=O)[C@H](CC(=O)O)NC(=O)[C@H](CCSC)NC(C)=O)C(=O)N[C@@H](CC(=O)O)C(=O)N1CCC[C@H]1C(=O)N[C@@H](Cc1ccc(O)cc1)C(=O)N[C@@H](CCCCN)C(=O)N[C@@H](CCC(=O)O)C(=O)N[C@@H](Cc1ccccc1)C(=O)NCC(=O)N[C@@H](C)C(=O)N[C@@H](CO)C(=O)N[C@H](C(=O)N[C@@H](CCC(=O)O)C(=O)N[C@@H](CC(C)C)C(N)=O)C(C)C,inactive
10,CC[C@H](C)[C@H](NC(=O)[C@H](CO)NC(=O)[C@@H]1CCCN1C(=O)[C@H](Cc1ccccc1)NC(=O)[C@H](Cc1ccccc1)NC(=O)[C@H](CC(=O)O)NC(=O)[C@H](CO)NC(=O)[C@@H]1CCCN1C(=O)[C@H](CC(C)C)NC(=O)[C@H](Cc1ccccc1)NC(=O)[C@H](CO)NC(=O)[C@H](CC(C)C)NC(C)=O)C(=O)N[C@@H](CCCNC(=N)N)C(=O)N[C@@H](CC(=O)O)C(=O)N[C@@H](CC(C)C)C(N)=O,inactive
11,CC[C@H](C)[C@H](NC(=O)[C@H](CO)NC(=O)[C@@H]1CCCN1C(=O)[C@H](Cc1ccccc1)NC(=O)[C@H](Cc1ccccc1)NC(=O)[C@H](CC(=O)O)NC(=O)[C@H](CO)NC(C)=O)C(=O)N[C@@H](CCCNC(=N)N)C(=O)N[C@@H](CC(=O)O)C(=O)N[C@@H](CC(C)C)C(=O)N[C@@H](CC(C)C)C(=O)N[C@@H](CC(=O)O)C(=O)N[C@H](C(=O)N[C@@H](C)C(=O)N[C@@H](CO)C(N)=O)[C@@H](C)O,inactive
12,CC[C@H](C)[C@H](NC(=O)[C@H](CO)NC(C)=O)C(=O)N[C@@H](CCCNC(=N)N)C(=O)N[C@@H](CC(=O)O)C(=O)N[C@@H](CC(C)C)C(=O)N[C@@H](CC(C)C)C(=O)N[C@@H](CC(=O)O)C(=O)N[C@H](C(=O)N[C@@H](C)C(=O)N[C@@H](CO)C(=O)N[C@@H](C)C(=O)N[C@@H](CC(C)C)C(=O)N[C@@H](Cc1ccc(O)cc1)C(=O)N[C@@H](CCCNC(=N)N)C(=O)N[C@@H](CCC(=O)O)C(N)=O)[C@@H](C)O,inactive
13,CC[C@H](C)[C@H](NC(=O)[C@H](Cc1c[nH]c2ccccc12)NC(=O)[C@@H](NC(=O)CNC(=O)[C@H](Cc1ccccc1)NC(=O)[C@H](CO)NC(C)=O)C(C)C)C(=O)N[C@@H](CCCNC(=N)N)C(=O)N[C@H](C(=O)N1CCC[C@H]1C(=O)N1CCC[C@H]1C(=O)N[C@@H](C)C(=O)N[C@@H](Cc1ccc(O)cc1)C(=O)N[C@@H](CCCNC(=N)N)C(=O)N1CCC[C@H]1C(=O)N1CCC[C@H]1C(N)=O)[C@@H](C)O,inactive
14,CSCC[C@H](NC(=O)[C@H](CC(C)C)NC(=O)[C@H](CCC(=O)O)NC(=O)CNC(=O)[C@H](Cc1c[nH]c2ccccc12)NC(=O)[C@H](CS)NC(C)=O)C(=O)N[C@@H](CC(N)=O)C(=O)N[C@@H](CC(C)C)C(=O)N[C@@H](C)C(=O)N[C@H](C(=O)N[C@@H](Cc1c[nH]c2ccccc12)C(=O)N[C@H](C(=O)NCC(=O)N[C@@H](CO)C(=O)N[C@@H](CC(N)=O)C(N)=O)C(C)C)[C@@H](C)O,inactive
15,CSCC[C@H](NC(=O)[C@H](CC(N)=O)NC(=O)[C@@H](NC(=O)[C@H](CC(N)=O)NC(=O)[C@@H](NC(=O)[C@H](Cc1ccc(O)cc1)NC(=O)[C@H](CO)NC(=O)[C@@H](NC(=O)[C@@H](NC(=O)[C@H](CC(C)C)NC(=O)[C@H](CCC(=O)O)NC(=O)[C@H](CCCNC(=N)N)NC(=O)[C@H](CO)NC(C)=O)C(C)C)C(C)C)C(C)C)C(C)C)C(=O)NCC(=O)N[C@@H](CC(C)C)C(N)=O,inactive
16,CSCC[C@H](NC(C)=O)C(=O)N[C@@H](CC(N)=O)C(=O)N[C@@H](CC(C)C)C(=O)N[C@@H](C)C(=O)N[C@H](C(=O)N[C@@H](Cc1c[nH]c2ccccc12)C(=O)N[C@H](C(=O)NCC(=O)N[C@@H](CO)C(=O)N[C@@H](CC(N)=O)C(=O)N[C@@H](CC(C)C)C(=O)N[C@@H](CCC(=O)O)C(=O)N[C@@H](CC(=O)O)C(=O)N1CCC[C@H]1C(=O)N[C@@H](C)C(N)=O)C(C)C)[C@@H](C)O,inactive
17,CC(=O)N[C@@H](C)C(=O)N[C@@H](CC(C)C)C(=O)N[C@@H](CCC(=O)O)C(=O)N[C@@H](CO)C(=O)N1CCC[C@H]1C(=O)N[C@@H](CCC(=O)O)C(=O)N[C@@H](Cc1c[nH]cn1)C(=O)N[C@@H](CS)C(=O)N[C@@H](CO)C(=O)N1CCC[C@H]1C(=O)N[C@@H](Cc1c[nH]cn1)C(=O)N[C@@H](Cc1c[nH]cn1)C(=O)N[C@H](C(=O)N[C@@H](C)C(=O)N[C@@H](CC(C)C)C(N)=O)[C@@H](C)O (Ac-ALESPEHCSPHHTAL-NH2),inactive
18,CC(=O)N[C@@H](C)C(=O)N[C@@H](CC(C)C)C(=O)N[C@@H](Cc1ccc(O)cc1)C(=O)N[C@@H](CCCNC(=N)N)C(=O)N[C@@H](CCC(=O)O)C(=O)N[C@@H](C)C(=O)N[C@@H](CC(C)C)C(=O)N[C@@H](CCC(=O)O)C(=O)N[C@@H](CO)C(=O)N1CCC[C@H]1C(=O)N[C@@H](CCC(=O)O)C(=O)N[C@@H](Cc1c[nH]cn1)C(=O)N[C@@H](CS)C(=O)N[C@@H](CO)C(=O)N1CCC[C@H]1C(N)=O (Ac-ALYREALESPEHCSP-NH2),inactive
19,CC[C@H](C)[C@H](NC(=O)[C@@H]1CCCN1C(=O)[C@H](C)NC(=O)[C@H](CC(N)=O)NC(=O)[C@@H]1CCCN1C(=O)[C@@H]1CCCN1C(=O)[C@H](CCCNC(=N)N)NC(=O)[C@H](Cc1ccc(O)cc1)NC(=O)[C@H](C)NC(C)=O)C(=O)N[C@@H](CC(C)C)C(=O)N[C@@H](CO)C(=O)N[C@H](C(=O)N[C@@H](CC(C)C)C(=O)N1CCC[C@H]1C(=O)N[C@@H](CCC(=O)O)C(N)=O)[C@@H](C)O (Ac-AYRPPNAPILSTLPE-NH2),inactive
20,CC[C@H](C)[C@H](NC(=O)[C@H](C)NC(=O)[C@H](CCC(N)=O)NC(=O)[C@@H]1CCCN1C(=O)[C@H](CC(C)C)NC(=O)[C@H](C)NC(=O)[C@@H](NC(=O)[C@H](Cc1c[nH]cn1)NC(=O)[C@H](Cc1c[nH]cn1)NC(=O)[C@@H]1CCCN1C(=O)[C@H](CO)NC(=O)[C@H](CS)NC(=O)[C@H](Cc1c[nH]cn1)NC(=O)[C@H](CCC(=O)O)NC(C)=O)[C@@H](C)O)C(=O)N[C@@H](CC(C)C)C(N)=O (Ac-EHCSPHHTALPQAIL-NH2),inactive
